In the test the test system is Tel22 (DNA, G4) AGGGTTAGGGTTAGGGTTAGGG
Briefly: CD melting, SVD global fit. Particulars: 150 mM KCl; 50 mM phosphate, 0.3 mM EDTA, pH 7; 60 μM ligand, 30 μM DNA; not irradiated; 3–4.

Structures are written as SMILES.

On to `C[n+]1ccc(-c2c3nc(c(-c4cc[n+](C)cc4)c4ccc([nH]4)c(-c4cc[n+](C)cc4)c4nc(c(-c5cc[n+](C)cc5)c5ccc2[nH]5)C=C4)C=C3)cc1`, for which the Tm is on record as ~ 3 degrees.

The values above are taken from paper PMC10218862 (2023).
